# According to PubChem BioAssay AID1963834 (Molecular Pharmacology Branch, DTP, NCI, 2024):
# Tested on: 873145-292-R-J1-PDC complex spheroid viability
# Assay: Anticancer human tumor 873145-292-R-J1-PDC patient-derived renal clear cell carcinoma cell line growth inhibition [POLQ]
# Conditions: for IC50: curve of first compound; for viability, T/C: stronger effect = lower value
# Outline: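 PDC + HUVEC + MSC complex spheroids; POLQ inhibitors ± partner drugs; top conc. at/near clinical Cmax, else 10 microM (SN-38 1 microM), half-log dilutions; 37 degrees C, 5% CO2.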
# [1] = second compound 0.0316 µM, first compound 0.0316 µM
# [2] = second compound 0.0316 µM, first compound 0.1 µM
# [3] = second compound 0.0316 µM, first compound 0.316 µM
# [4] = second compound 0.0316 µM, first compound 1 µM
# [5] = second compound 0.0316 µM, first compound 3.16 µM
# [6] = second compound 0.0316 µM, first compound 10 µM
# [7] = second compound 0.1 µM, first compound 0.0316 µM
# [8] = second compound 0.1 µM, first compound 0.1 µM
# [9] = second compound 0.1 µM, first compound 0.316 µM
# [10] = second compound 0.1 µM, first compound 1 µM
# [11] = second compound 0.1 µM, first compound 3.16 µM
# [12] = second compound 0.1 µM, first compound 10 µM
# [13] = second compound 0.316 µM, first compound 0.0316 µM
# [14] = second compound 0.316 µM, first compound 0.1 µM
# [15] = second compound 0.316 µM, first compound 0.316 µM
# [16] = second compound 0.316 µM, first compound 1 µM
# [17] = second compound 0.316 µM, first compound 3.16 µM
# [18] = second compound 0.316 µM, first compound 10 µM
# [19] = second compound 1 µM, first compound 0.0316 µM
# [20] = second compound 1 µM, first compound 0.1 µM
# [21] = second compound 1 µM, first compound 0.316 µM
# [22] = second compound 1 µM, first compound 1 µM
# [23] = second compound 1 µM, first compound 3.16 µM
# [24] = second compound 1 µM, first compound 10 µM
# [25] = second compound 3.16 µM, first compound 0.0316 µM
# [26] = second compound 3.16 µM, first compound 0.1 µM
# [27] = second compound 3.16 µM, first compound 0.316 µM
# [28] = second compound 3.16 µM, first compound 1 µM
# [29] = second compound 3.16 µM, first compound 3.16 µM
# [30] = second compound 3.16 µM, first compound 10 µM
# [31] = second compound 10 µM, first compound 0.0316 µM
# [32] = second compound 10 µM, first compound 0.1 µM
# [33] = second compound 10 µM, first compound 0.316 µM
# [34] = second compound 10 µM, first compound 1 µM
# [35] = second compound 10 µM, first compound 3.16 µM
# [36] = second compound 10 µM, first compound 10 µM
# 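Note: spheroids exposed to compounds for 7 days before viability readout.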
# 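Throughout, for viability, T/C: luminescence signal used as surrogate for viable cell content; 100% = DMSO vehicle control viability.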
smiles,measurement,setting,value
CC1COCCN1c1cc(C2(O)CC3CCC(C2)O3)c2cnn(-c3ccn[nH]3)c2n1 (stereo unspecified) + Cc1cccc(N(C)C(=O)C2C(O)CCN2c2nc(C)cc(C(F)(F)F)c2C#N)c1,IC50,second compound 0.0316 µM,478 nM
same,IC50,second compound 0.1 µM,610 nM
same,IC50,second compound 0.316 µM,405 nM
same,IC50,second compound 1 µM,511 nM
same,IC50,second compound 3.16 µM,378 nM
same,IC50,second compound 10 µM,306 nM
same,"viability, T/C",[1],84.4%
same,"viability, T/C",[2],67.5%
same,"viability, T/C",[3],54%
same,"viability, T/C",[4],44.3%
same,"viability, T/C",[5],37.2%
same,"viability, T/C",[6],38%
same,"viability, T/C",[7],93.5%
same,"viability, T/C",[8],76.4%
same,"viability, T/C",[9],57.1%
same,"viability, T/C",[10],43.2%
same,"viability, T/C",[11],39.5%
same,"viability, T/C",[12],32%
same,"viability, T/C",[13],94.5%
same,"viability, T/C",[14],82.5%
same,"viability, T/C",[15],52.5%
same,"viability, T/C",[16],40.4%
same,"viability, T/C",[17],40.3%
same,"viability, T/C",[18],35.9%
same,"viability, T/C",[19],84.8%
same,"viability, T/C",[20],71.6%
same,"viability, T/C",[21],54%
same,"viability, T/C",[22],44.1%
same,"viability, T/C",[23],42.1%
same,"viability, T/C",[24],39.8%
same,"viability, T/C",[25],90.1%
same,"viability, T/C",[26],63.1%
same,"viability, T/C",[27],55.6%
same,"viability, T/C",[28],41.3%
same,"viability, T/C",[29],36.6%
same,"viability, T/C",[30],35.6%
same,"viability, T/C",[31],86.2%
same,"viability, T/C",[32],68.8%
same,"viability, T/C",[33],49%
same,"viability, T/C",[34],38.4%
same,"viability, T/C",[35],39.5%
same,"viability, T/C",[36],32%
COc1cc(C2c3cc4c(cc3C(OC3OC5COC(C)OC5C(O)C3O)C3COC(=O)C23)OCO4)cc(OC)c1O (stereo unspecified) + COC1C(OC(N)=O)C(O)C(Oc2ccc3c(O)c(NC(=O)c4ccc(O)c(CC=C(C)C)c4)c(=O)oc3c2C)OC1(C)C,IC50,second compound 0.0316 µM,> 10000 nM
same,IC50,second compound 0.1 µM,> 10000 nM
same,IC50,second compound 0.316 µM,> 10000 nM
same,IC50,second compound 1 µM,> 10000 nM
same,IC50,second compound 3.16 µM,> 10000 nM
same,IC50,second compound 10 µM,> 10000 nM
same,"viability, T/C",[1],104%
same,"viability, T/C",[2],108%
same,"viability, T/C",[3],103%
same,"viability, T/C",[4],99.1%
same,"viability, T/C",[5],80.3%
same,"viability, T/C",[6],57.2%
same,"viability, T/C",[7],112%
same,"viability, T/C",[8],101%
same,"viability, T/C",[9],101%
same,"viability, T/C",[10],96.2%
same,"viability, T/C",[11],72.5%
same,"viability, T/C",[12],53.8%
same,"viability, T/C",[13],114%
same,"viability, T/C",[14],99.4%
same,"viability, T/C",[15],100%
same,"viability, T/C",[16],87.4%
same,"viability, T/C",[17],72.9%
same,"viability, T/C",[18],54.3%
same,"viability, T/C",[19],96.2%
same,"viability, T/C",[20],95.5%
same,"viability, T/C",[21],101%
same,"viability, T/C",[22],86.2%
same,"viability, T/C",[23],79%
same,"viability, T/C",[24],53.4%
same,"viability, T/C",[25],107%
same,"viability, T/C",[26],106%
same,"viability, T/C",[27],104%
same,"viability, T/C",[28],86.6%
same,"viability, T/C",[29],70.9%
same,"viability, T/C",[30],57.7%
same,"viability, T/C",[31],103%
same,"viability, T/C",[32],103%
same,"viability, T/C",[33],95.5%
same,"viability, T/C",[34],94.5%
same,"viability, T/C",[35],76.7%
same,"viability, T/C",[36],67.2%
Nc1ccn(C2OC(CO)C(O)C2(F)F)c(=O)n1 (stereo unspecified) + COC1C(OC(N)=O)C(O)C(Oc2ccc3c(O)c(NC(=O)c4ccc(O)c(CC=C(C)C)c4)c(=O)oc3c2C)OC1(C)C,IC50,second compound 0.0316 µM,> 10000 nM
same,IC50,second compound 0.1 µM,1090 nM
same,IC50,second compound 0.316 µM,243 nM
same,IC50,second compound 1 µM,1280 nM
same,IC50,second compound 3.16 µM,360 nM
same,IC50,second compound 10 µM,> 10000 nM
same,"viability, T/C",[1],59.6%
same,"viability, T/C",[2],46.6%
same,"viability, T/C",[3],52.2%
same,"viability, T/C",[4],46.5%
same,"viability, T/C",[5],54.8%
same,"viability, T/C",[6],50.9%
same,"viability, T/C",[7],51.2%
same,"viability, T/C",[8],57.5%
same,"viability, T/C",[9],53.7%
same,"viability, T/C",[10],44.2%
same,"viability, T/C",[11],51%
same,"viability, T/C",[12],43.5%
same,"viability, T/C",[13],60.8%
same,"viability, T/C",[14],52.9%
same,"viability, T/C",[15],47.8%
same,"viability, T/C",[16],48.3%
same,"viability, T/C",[17],51.4%
same,"viability, T/C",[18],46%
same,"viability, T/C",[19],57.8%
same,"viability, T/C",[20],54.8%
same,"viability, T/C",[21],52.7%
same,"viability, T/C",[22],48.8%
same,"viability, T/C",[23],49.6%
same,"viability, T/C",[24],48.4%
same,"viability, T/C",[25],61.7%
same,"viability, T/C",[26],60.2%
same,"viability, T/C",[27],50.3%
same,"viability, T/C",[28],43.6%
same,"viability, T/C",[29],50.7%
same,"viability, T/C",[30],52.5%
same,"viability, T/C",[31],59.2%
same,"viability, T/C",[32],52.4%
same,"viability, T/C",[33],52.2%
same,"viability, T/C",[34],45.6%
same,"viability, T/C",[35],53.6%
same,"viability, T/C",[36],53.1%
